Measurements taken from patent US20250064724A1, “MODULAR FIELD-STABLE BIO-ARTIFICIAL BLOOD SUBSTITUTE” (VIRGINIA COMMONWEALTH UNIVERSITY, priority 2021, published 2025).

What was measured:
shocked rats [1] = assay: Example 3: PEG-20 k and delayed or nitric oxide modified HBOC in rodent lethal hemorrhagic shock; assay type: in vivo, rat; details: Example 3, present tense
Method: Rats are bled to 35 mmHg and held there until lactate reaches 9-10 mM, at which time, LVR solutions are given to resuscitate them. Thirty minutes after resuscitation, another 10% blood volume is removed and the plasma component is immediately separated and given back. A loop of distal ileum is exposed and a 1 cm enterotomy is made along the anti-mesenteric border to access the mucosal surface for hourly recordings of capillary blood flow by Orthogonal Polarization Spectral Imaging (OPSI) and for biopsies of bowel mucosa at various times before. The biopsies are used for histological analysis and for nitric oxide metabolism studies ex-vivo in a tissue culture system.
The albumin solution is a control for both the protein and oncotic effects of the HBOC per se and for the delayed volume administration at 2 and 4 hours after the initial PEG-20 k resuscitation. The total volume infusions for these studies is maintained at 6.8 ml/kg to remain in the low volume range (10% estimated blood volume). All surgical preparations are sterile so any animals surviving after 5 hours from resuscitation can be recovered the next day. N=10 rats per group. […]
In both Part 1 and Part 2, the primary measured outcomes include the rate of oxygen debt repayment on the first operative day and the re-accumulation of new oxygen debt the following days in rats that survive the initial 5-hour intra-operative observation period. […] Other secondary outcomes measured in each experiment include MAP, blood labs, intestinal microcirculation measured with orthogonal polarization spectral imaging (OPSI) through a small enterotomy in the distal ileum, plasma Th1 cytokines, terminal bowel histology analysis, and subject survival time. Finally, local tissue production of nitric oxide, nitrosothiols, and nitric oxide metabolites is assessed from serial bowel mucosa biopsies using incubations of tissue in a Dubanoff metabolic incubator and a Sievers-Style chemiluminescence NO analyzer.

[2] = test system: nitric oxide synthase (NOS); details: cited from earlier work; for blockade of the L-Arginine effect in crystalloid resuscitation: competitive NOS inhibitors
anesthetized rats [3] = details: 300 mg/kg L-Arginine with 6.8 ml/kg HBOC-201 IV, listed as L-Arg
Excerpt: This hypertension is believed due to the local scavenging of nitric oxide in the vessel wall. As the normal vasodilator tone produced by basal nitric oxide is removed by the HBOC hemoglobin, the vasoconstrictor tone now prevails and the blood pressure rises secondary to vasoconstriction of the resistance vessels.
Studies were designed to test how nitric oxide substrate loading before HBOC prevents or attenuates the NO scavenging effects of the HBOC on physiological, biochemical, and survival outcomes.

anesthetized rats [4] = details: literature reference (22); cited from earlier work
shocked rats [5] = assay: Example 4: fibrinogen add back after PEG-20 k resuscitation, controlled and uncontrolled hemorrhage in rats; assay type: in vivo, rat; details: fibrinogen after PEG-20 k IV solution, controlled or uncontrolled hemorrhagic shock
Method: Changes in coagulation and platelet function is measured in the controlled lethal shock model in adult anesthetized rats in groups that receive PEG-20 k IV solution alone and those that receive PEG-20 k IV solution and supplemental human fibrinogen (200 mg/kg, IV, in 300 μl LR). The control group also receives 300 ul LR without RiaSTAP®. Samples of whole rat blood (1.0-ml) are taken at baseline and at various times after resuscitation for thromboelastography (TEG) analysis of coagulation and platelet function. Other assays are done to measure fibrinogen levels, intrinsic and extrinsic coagulation pathway coagulation, and platelet mapping studies are conducted to answer some mechanistic questions about platelet function defects. Samples are collected out to 4 hours, which is the time when coagulation and platelet function begins to return to baseline levels after PEG-20 k resuscitation. Each group uses 10 adult Sprague-Dawley rats.
Coagulation and platelet function outcomes are tested by using a clinically relevant model of mixed polytrauma hemorrhagic shock that involves severe bleeding from both controllable and uncontrollable sources. Our lab has developed a rodent model of severe hemorrhagic shock where tail bleeding (controlled source) is combined with blood loss from an abdominal penetrating injury to the spleen (splenic laceration). […]

[6] = test system: platelet IIb/IIIa receptor; details: in vivo
Excerpt: The hypocoagulable state and functional hypofibrinogenemia that exists immediately after severe blood loss and PEG-20 k resuscitation is mitigated by the concurrent addition of reconstituted lyophilized human fibrinogen (RiaSTAP®). The effects of severe blood loss after hemorrhage leads to direct depletion of clotting factors including fibrinogen. Furthermore, resuscitation with PEG-20 k IV solution causes rapid and long acting volume expansion by the osmotic movement of isotonic fluid from the intracellular and interstitial spaces back into the intravascular space, which further dilutes fibrinogen concentrations. […] Together, these forces tend to dilute out plasma fibrinogen concentrations that likely contribute to both the transient hypocoagulable state and the functional hypofibrinogenemia seen after PEG-20 k resuscitation in severe blood loss. Therefore, it makes sense that a simple add back of fibrinogen to the system after PEG-20 k IV solution resuscitation will correct the defect and improve coagulation and platelet function. […]
Changes in coagulation and platelet function is measured in the controlled lethal shock model in adult anesthetized rats in groups that receive PEG-20 k IV solution alone and those that receive PEG-20 k IV solution and supplemental human fibrinogen (200 mg/kg, IV, in 300 μl LR). […]

## N=C(N)NCCC[C@@H](N)C(=O)O (racemic) [D-Arginine]
Shocked rats [1]
  blockade of the L-Arginine effect with HBOC: this effect is blocked
[2]
  blockade of the L-Arginine effect in crystalloid resuscitation: blocked

## N=C(N)NCCC[C@H](N)C(=O)O [L-Arginine]
Shocked rats [1]; after PEG-20 k
  resuscitation outcome with L-Arginine before HBOC: Improvements are seen
[2]; severe hemorrhagic shock, earlier work of the lab (20)
  crystalloid resuscitation outcome with L-Arginine: dramatically improved
Anesthetized rats [3]
  effect of co-administered L-Arginine on the blood pressure response to HBOC: caused vasodilatation that caused the blood pressure to drop

## COC(=O)[C@@H](N)CCCNC(=N)N[N+](=O)[O-] [L-NAME, L-Nitro Arginine Methyl Ester]
Anesthetized rats [4]
  reversal of the L-Arg blood pressure effect by nitric oxide synthetase inhibitor: reversal
Shocked rats [1]
  blockade of the L-Arginine effect with HBOC: this effect is blocked
[2]
  blockade of the L-Arginine effect in crystalloid resuscitation: blocked

## fibrinogen
Shocked rats [5]
  coagulation outcomes, bleeding times and volumes: reduces bleeding
Shocked rats [5]; listed as concentrated fibrinogen
  coagulation outcomes, bleeding times and volumes: significantly improves coagulation outcomes and decreases uncontrolled bleeding times and volumes

## polyethylene glycol [PEG-20 k]
[6]
  coagulopathy on TEG: minor coagulopathy on TEG
  time when coagulation and platelet function begins to return to baseline levels: 4 h
